Measured values as given in paper PMC10527014 (Antiviral research, 2023).
Like-named read-outs stand apart in the source and are kept apart here.

Key:
Coxsackievirus B5 (CVB5) = experiment: CVB5 CPE rescue; format: cell-based; settings: Enterovirus B, B5|CVB5, Vero, read-out: EC50 against CVB5
[1] = tested on: EV-D68 MP30 PP (mouse-adapted US/MO/14-18949); settings: day 3 p.i., during animal model development; ref Hurst et al., 2019; cited from earlier work
CYP3A4 [2] = settings: 1 μM, rifampicin as positive control, previously tested
[3] = tested on: 215 clinical isolates of EV serotypes; settings: ~90% of isolates; ref Pevear et al., 1999; cited from earlier work
EV-D68 [4] = settings: read-out: EC50 against EV-D68; ref Liu et al., 2015b; cited from earlier work
[5] = tested on: Coxsackievirus B3-Woodruff (CVB3); format: cell-based; settings: Coxsackievirus, B3|CVB3, HeLa, read-out: Inhibitory concentration EC50 against CVB3-Woodruff
[6] = biological target: T1, pregnane X-receptor (PXR) (Homo sapiens, UniProt O75469); experiment: PXR agonist activity
T1 sequence (O75469 1-434): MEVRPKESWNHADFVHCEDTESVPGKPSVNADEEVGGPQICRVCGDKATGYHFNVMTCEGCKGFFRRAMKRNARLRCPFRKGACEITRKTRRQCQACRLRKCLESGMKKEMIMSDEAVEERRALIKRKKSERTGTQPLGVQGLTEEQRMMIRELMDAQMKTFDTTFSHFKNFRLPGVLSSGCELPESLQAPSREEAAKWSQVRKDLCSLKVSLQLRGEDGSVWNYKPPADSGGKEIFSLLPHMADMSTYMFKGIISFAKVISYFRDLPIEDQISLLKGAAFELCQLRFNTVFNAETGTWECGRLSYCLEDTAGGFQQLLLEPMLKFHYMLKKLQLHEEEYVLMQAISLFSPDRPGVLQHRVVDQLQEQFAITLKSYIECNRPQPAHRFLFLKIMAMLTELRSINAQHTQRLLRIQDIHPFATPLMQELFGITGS

mouse-adapted CVB5 = experiment: Mouse model of CVB5-induced pancreatitis; format: in vivo, BALB/c mice; settings: CVB5-infected mice, Fig. S20
EV-71 = settings: read-out: IC50 against EV-71 in vitro; ref Zhang et al., 2012; cited from earlier work
[7] = tested on: Coxsackievirus B3-Woodruff (CVB3); experiment: microbe, parasite or virus in culture; settings: B3|CVB3, HeLa
[8] = tested on: enterovirus / picornavirus infections; settings: cited from earlier work
CYP3A4 [9] = biological target: CYP3A4 (Homo sapiens, UniProt P08684); settings: human liver microsomes, at higher concentrations (Fig. S21)
EV-D68 [10] = settings: mouse model of EV-D68-associated AFM; ref Hixon et al., 2017; cited from earlier work
[11] = tested on: EV-D68 MP30 PP (mouse-adapted); experiment: EV-D68 neurological infection; format: in vivo, AG129 mice
[12] = tested on: EV-D68 MP30 PP (mouse-adapted US/MO/14-18949); experiment: EV-D68 respiratory infection model in four-week-old AG129 mice; format: in vivo; settings: days 1 and 3 p.i., P≤0.05 vs placebo; guanidine 100 mg/kg/day

Sequence of CYP3A4 (Homo sapiens, UniProt P08684) (P08684 whole entry): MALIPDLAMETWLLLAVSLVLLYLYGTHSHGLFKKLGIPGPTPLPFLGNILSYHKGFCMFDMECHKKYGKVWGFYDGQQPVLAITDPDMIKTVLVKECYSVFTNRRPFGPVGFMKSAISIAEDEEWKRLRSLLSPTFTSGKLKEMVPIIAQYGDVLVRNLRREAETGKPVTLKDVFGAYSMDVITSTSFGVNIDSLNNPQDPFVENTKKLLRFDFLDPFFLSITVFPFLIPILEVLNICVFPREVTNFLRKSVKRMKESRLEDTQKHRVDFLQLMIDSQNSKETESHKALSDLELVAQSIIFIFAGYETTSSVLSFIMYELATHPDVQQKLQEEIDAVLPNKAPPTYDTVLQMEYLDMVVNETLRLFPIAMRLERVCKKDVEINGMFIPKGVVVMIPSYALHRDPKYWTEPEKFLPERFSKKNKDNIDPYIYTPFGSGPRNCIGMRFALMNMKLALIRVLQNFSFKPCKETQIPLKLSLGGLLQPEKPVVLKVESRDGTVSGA

Cc1cc(CCCOc2c(C)cc(-c3noc(C(F)(F)F)n3)cc2C)on1 [Pleconaril]
EC50 (Coxsackievirus B5 (CVB5)): 0.66 nM | Lung virus titers [1]: did not demonstrate any antiviral activity | CYP3A induction, of control (CYP3A4 [2]): 13 % of control | CYP3A induction (CYP3A4 [2]; single donor in duplicate): 1.7 x | IC90 [3]: ≤ 180 nM | EC50 (EV-D68 [4]): 430 nM | EC50 [5]: 150 ± 10 nM | PXR agonism (in words) [6]: neither 11526092 nor pleconaril is an agonist | Histology of pancreatic tissue (mouse-adapted CVB5): no signs of tissue damage | IC50 (EV-71): 340 to 1420 nM | EC50 ([7]; read-out: Inhibitory concentration EC50 against CVB3-Woodruff, HeLa cells, adding drug to virus and then infecting at MOI 1 PFU / cell, ± SEM): 45 nM | EC50 ([7]; read-out: Inhibitory concentration EC50 against CVB3-Woodruff, HeLa cells, adding drug to virus and then infecting at MOI 3 PFU / cell, ± SEM): 333 ± 210 nM | Effect on the treatment of the common cold ([8]; 400 mg three times a day over five days, ref Hayden et al., 2003): no statistically significant effect | Patients with clinical improvement ([8]; chronic meningoencephalitis, ref Aradottir et al., 2001, Rotbart et al.): 78% | Neonates in whom treatment proved effective ([8]; neonates with severe enteroviral hepatitis, ref Aradottir et al., 2001): 2 of 3 | Effect on CYP3A4 (in words) (CYP3A4 [9]): activation (or autoactivation) of CYP3A4

CNCCC(Oc1ccc(C(F)(F)F)cc1)c1ccccc1 (stereo not shown) [fluoxetine]
Viral load (EV-D68 [10]): did not reduce the viral load

Cl.N=C(N)N [guanidine, Guanidine HCl, reference compound]
Neurological scores ([11]; post-challenge study): reduced the neurological score on day 3 post-infection | Mice protected from challenge infection ([11]; post-challenge study (treatment 4 hours post-infection)): > 80% | Mice protected from challenge infection ([11]; pre-challenge study (treatment 2 hours pre-infection)): 100% | Protection from weight loss ([11]; pretreatment, P≤0.0001, Fig. S19): significant protection | Lung virus titers [12]: showed a reduction
